Data reported in patent US20040082598A1, “Compounds specific to adenosine A, receptors and uses thereof” (OSI Pharmaceuticals, Inc., priority 2000, published 2004).

Legend:
[1] = test system: human A1 adenosine receptor; details: cited from earlier work
[2] = biological target: T1, human A1 receptor subtype (Homo sapiens, UniProt P30542); assay: Adenosine 1 receptor subtype saturation and competition radioligand binding ([3H]DPCPX, yeast membranes)
T1 construct: yeast alpha-factor (Mfα1) prepro leader (N, cleaved yes); expressed in transfected cells; host or cells: Saccharomyces cerevisiae (strain CY12660 or related strains carrying plasmid p5095)
T1 sequence (P30542 1-326): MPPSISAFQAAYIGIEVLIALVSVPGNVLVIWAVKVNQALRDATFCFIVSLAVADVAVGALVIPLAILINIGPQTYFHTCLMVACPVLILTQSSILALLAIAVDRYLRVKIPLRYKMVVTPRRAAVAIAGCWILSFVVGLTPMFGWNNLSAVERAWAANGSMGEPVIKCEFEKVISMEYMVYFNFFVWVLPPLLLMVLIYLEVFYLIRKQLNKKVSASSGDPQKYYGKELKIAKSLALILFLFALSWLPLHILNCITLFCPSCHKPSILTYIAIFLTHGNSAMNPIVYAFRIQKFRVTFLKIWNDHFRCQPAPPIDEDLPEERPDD

human adenosine A1 (A1R) = biological target: T2, human adenosine A1 (A1R) (Homo sapiens, UniProt P30542); assay: Yeast β-galactosidase reporter gene assay, strain CY12660; assay type: cell-based; details: inhibition of NECA-induced β-galactosidase activity
T2 construct: yeast alpha-factor (Mfα1) prepro leader (N, cleaved yes); expressed in transfected cells; host or cells: Saccharomyces cerevisiae (strain CY12660 or related strains carrying plasmid p5095)
T2 sequence (P30542 1-326): T1 sequence (P30542 1-326)

[3] = biological target: T3, human A2a receptor subtype (Homo sapiens, UniProt P29274); assay: Adenosine 2a receptor subtype competition radioligand binding ([3H]CGS-21680, HEK293 membranes); details: no footnote at cell; footnote 8 of table: % activity @ 10 μM
T3 construct: expressed in transfected cells; host or cells: HEK-293 (Cadus clone # 5)
T3 sequence (P29274 whole entry): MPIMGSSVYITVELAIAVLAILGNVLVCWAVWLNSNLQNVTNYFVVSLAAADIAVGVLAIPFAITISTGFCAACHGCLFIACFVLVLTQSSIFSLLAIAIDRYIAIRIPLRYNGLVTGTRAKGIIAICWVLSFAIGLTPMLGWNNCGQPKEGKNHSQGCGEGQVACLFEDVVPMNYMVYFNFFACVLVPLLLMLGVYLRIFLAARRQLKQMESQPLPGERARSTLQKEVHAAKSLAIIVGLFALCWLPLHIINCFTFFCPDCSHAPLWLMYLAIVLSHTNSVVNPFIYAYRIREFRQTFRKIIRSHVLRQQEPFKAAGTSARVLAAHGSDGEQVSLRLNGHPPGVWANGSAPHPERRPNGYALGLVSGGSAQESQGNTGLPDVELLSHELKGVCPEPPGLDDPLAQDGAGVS

[4] = biological target: T4, human A3 receptor subtype (Homo sapiens, UniProt P0DMS8); assay: Adenosine 3 receptor competition radioligand binding ([125I]AB-MECA, HEK293 membranes)
T4 construct: expressed in transfected cells; host or cells: HEK293
T4 sequence (P0DMS8 1-318): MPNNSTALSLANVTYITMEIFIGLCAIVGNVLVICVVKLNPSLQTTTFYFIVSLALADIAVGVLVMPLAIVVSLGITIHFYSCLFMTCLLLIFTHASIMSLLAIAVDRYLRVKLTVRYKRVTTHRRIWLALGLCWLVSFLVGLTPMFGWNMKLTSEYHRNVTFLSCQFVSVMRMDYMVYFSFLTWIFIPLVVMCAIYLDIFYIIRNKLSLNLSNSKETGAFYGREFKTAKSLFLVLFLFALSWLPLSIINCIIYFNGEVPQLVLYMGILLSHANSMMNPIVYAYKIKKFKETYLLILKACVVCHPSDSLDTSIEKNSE

human A2a receptor = details: read-out: Reported Ki; cited from earlier work

CC(Cc1ccccc1)Nc1ncnc2c1ncn2[C@@H]1O[C@H](CO)[C@@H](O)[C@H]1O (single isomer, unassigned; (-)) [PIA, (−)-N6-(2-phenylisopropyl)-adenosine]
reported affinity [1]: approximately 50 nM

Cc1[nH]c2nc(-c3ccccc3)nc(NC3CCC(NS(C)(=O)=O)CC3)c2c1C (stereo not drawn) [Compound 604]
Ki [2]: > 10000 nM

Cc1[nH]c2nc(-c3ccccc3)nc(NC3CCC(NC(=O)c4ccccc4)CC3)c2c1C (stereo not drawn) [Compound 606]
Ki [2]: 298 nM | IC50 (human adenosine A1 (A1R)): > 10000 nM

Cc1[nH]c2nc(-c3ccccc3)nc(NC3CCC(CC(=O)c4ccccc4)CC3)c2c1C (stereo not drawn) [Compound 611]
Ki [2]: 786 nM | IC50 (human adenosine A1 (A1R)): > 10000 nM

Cc1[nH]c2nc(-c3cccnc3)nc(N[C@H]3CC[C@H](O)CC3)c2c1C [Compound 700]
IC50 (human adenosine A1 (A1R)): > 10000 nM

CNC(=O)NCCCNc1nc(-c2ccccc2)nc2[nH]c(C)c(C)c12 [Compound 1310]
A2a binding, % value printed in Ki column [3]: 76%

Cc1[nH]c2nc(-c3ccccc3)nc(NCCNC(=O)C3(N)CC3)c2c1C [Compound 1313]
A2a binding, % value printed in Ki column [3]: 65% | A1 binding, % value printed in Ki column ([2]; no footnote at cell, footnote 8 of table: % activity @ 10 μM): 30%

O[C@H]1CC[C@H](Nc2nc(-c3ccncc3)nc3[nH]ccc23)CC1 [Compound 1321]
A3 binding, % activity @ 10 μM [4]: 54%^8

NC(=O)[C@@H]1CCCN1c1nc(-c2ccccc2)nc2[nH]ccc12 [Compound 1602]
melting point: 236 to 238 °C

COCc1cc2c(N3CCC[C@H]3C(N)=O)nc(-c3ccccc3)nc2[nH]1 [Compound 1605]
melting point: 213 to 215 °C

NC(=O)[C@@H]1C[C@H](O)CN1c1nc(-c2ccccc2)nc2[nH]ccc12 [Compound 1606, 4-Hydroxy-1-(2-phenyl-7H-pyrrolo[2,3-d]pyrimidin-4-yl]-pyrrolidine-2-carboxylic acid amide]
melting point: 268 to 271 °C

NC(=O)[C@@H]1CCCN1c1nc(-c2ccccc2)nc2[nH]c(C(=O)O)cc12 [Compound 1619, [4-(2-Carbamoylpyrrolidin-1-yl)-2-phenyl-7H-pyrrolo[2,3-d]pyrimidine-6-carboxylic acid]]
melting point: 220 °C (dec.)

COC(=O)c1cc2c(NC3CCC(O)CC3)nc(-c3ccccc3)nc2[nH]1 (stereo not drawn) [Compound 1627, 4-(4-Hydroxy-cyclohexylamino)-2-phenyl-7H-pyrrolo[2,3-d]pyrimidine-6-carboxylic acid methyl ester]
melting point: 225 to 227 °C

NC(=O)c1cc2c(NC3CCC(O)CC3)nc(-c3ccccc3)nc2[nH]1 (stereo not drawn) [Compound 1630, 4-(4-Hydroxy-cyclohexylamino)-2-phenyl-7H-pyrrolo[2,3-d]pyrimidine-6-carboxylic acid amide]
melting point: 210 to 220 °C (dec.)
